The text below walks through data of patent publication US20260256792A1, “TREATMENT OF CHRONIC SPONTANEOUS URTICARIA BY ADMINISTERING (R)-2-[3-[4-AMINO-3-(2-FLUORO-4-PHENOXY-PHENYL)PYRAZOLO[3,4-D]PYRIMIDIN-1-YL]PIPERIDINE-1-CARBONYL]-4-METHYL-4-[4-(OXETAN-3-YL)PIPERAZIN-1-YL]PENT-2-ENENITRILE” (priority 2023, published 2026).

Each structure is given as a SMILES string.

Data set [1] deals with immune thrombocytopenic purpura (ITP). The note with it: cited from earlier work.
The subject of data set [2] is IgG anti-FcεRI. Nature of the data set: Phase 2 CSU study: serum IgG anti-FcεRI ELISA. It is filed as in vivo, human. Conditions: for IgG anti-FcεRI (arbitrary unit) Median Percent Change from Baseline: Baseline to Week 12. From the text:
Blood samples were also collected through Week 12 to evaluate the change in baseline in various biomarkers, including sMRGPRX2, IgG anti-TPO, IgG anti-FCεRI, IgG anti-IgE, and IL-31.
Collection of biological samples for other biomarker research was also part of this study. The following samples for biomarker research were required and were to be collected from all participants in this study: • Serum and plasma samples for soluble biomarkers and cellular tests. Analytes included IgG anti-IgE, IgG anti-FcεRI, IgG anti-TPO, IgE anti-TPO, IL-31, and sMRGPRX2. • Blood samples for immune cell phenotyping, including measurement of eosinophil levels • Blood samples for BTK occupancy in peripheral blood mononuclear cells (PBMCs) at selected sites
For each patient, serum samples were to be collected on each of four visits (Visits 2, 4, 6, and end of study/follow up).
If dilutions were to be prepared, the same dilutions were to be prepared twice from each sample. These were to be measured on different plates. Each plate was to include a standard curve. Samples were to be measured twice for all biomarkers except for sMRGPRX2. Mean measurement values were to be calculated, and the concentration of the biomarker was to be calculated using GraphPad Prism 9 software (4-PL model).
For the IgG anti-FcεRI ELISA, MaxiSorp plates were coated overnight with […] recombinant human FcεRIα and blocked with 10% protein-free blocking buffer diluted in assay buffer. Following the addition of serum samples (1:100 in assay buffer) or the hIgG anti-FcεRI standard (1:2 serial dilution in assay buffer), the plates were incubated at room temperature. Next, the anti-IgG-HRP detection antibody was added to all samples. Development was performed using ECL-prime solution and chemiluminescent signal intensity was measured on the Victor5 multimode plate reader.
Assay data ranges are described below. • sMRGPRX2: 0.1 ng/mL-10 ng/mL • IgG anti-FCεRI: 0-10000 arbitrary units (AU) • IgG anti-TPO: 0-3000 international units (IU) • IgE anti-TPO: 0-500 AU • IgG anti-IgE: 0-100000 AU • IL-31: 0.1 ng/mL-20 ng/mL
For orientation: In an ELISA, binding on a coated surface is turned into a signal by an enzyme label.

Data set [3] concerns other TEC family members. Conditions: cited from earlier work.

As for `CC(C)(C=C(C#N)C(=O)N1CCC[C@@H](n2nc(-c3ccc(Oc4ccccc4)cc3F)c3c(N)ncnc32)C1)N1CCN(C2COC2)CC1` [rilzabrutinib, (R)-2-[3-[4-amino-3-(2-fluoro-4-phenoxy-phenyl)pyrazolo[3,4-d]pyrimidin-1-yl]piperidine-1-carbonyl]-4-methyl-4-[4-(oxetan-3-yl)piperazin-1-yl]pent-2-enenitrile], the “treatment-emergent serious adverse events (TESAEs)” value in data set [1] (ITP Phase 1/2) is reported as “no treatment-emergent serious adverse events”. In data set [1] (ITP, treatment for at least 12 weeks), the “participants achieving the primary response endpoint” value is on record as 50%. Besides, in data set [2] (400 mg TID, Week 12), the “reduction from baseline for IgG anti-FCFRI” value turned out to be 38.7%. In addition, the results for the “IgG anti-FcεRI (arbitrary unit) Median Percent Change from Baseline” value in data set [2] (400 mg BID), in data set [2] (400 mg QPM) and in data set [2] (400 mg TID) were −39.0%, −20.4% and −38.7%, respectively. Further, the binding over time result in data set [3] is on record as “decayed rapidly over time”.
